Here are results for 22 compounds from patent publication US20050152906A1, “Specific human antibodies” (priority 2003, published 2005).

Ends that are not written are not given here. * marks the point of attachment. SO3H = O=S(=O)(O)*

The test system of data set [1] is Y1-scFv binding to platelets. As to the kind of experiment: Y1-scFv platelet binding assay, inhibition by synthetic GPIb peptides. Here is the method:
Briefly, peptides were synthesized by solid phase methodology using an ABIMED AMS-422 multiple peptide synthesizer, and as required, tyrosine sulfate was incorporated using FMOC-Try sodium salt. Synthetic peptides were purified using a Lichrosorb RP-18 column. For the Y1-scFv platelet binding assay, a mixture of synthetic peptide (2.5, 25 or 200 μM) and Y1-scFv (10 μg) was incubated with […]. Following washing, platelets were incubated with R-phycoerythrin labeled-anti scFv, washed and analyzed by FACS.

Data set [2] relates to primary B-CLL cells. As to the kind of experiment: CDC against mononuclear cells from B-CLL patients. Format: cell-based, human. The settings on record: presence and absence of 25% of the patients' plasma. Here is the method: For CDC experiments, mononuclear cells from B-CLL patients were separated on FICOLL®. Cells were incubated with or without Y1-IgG or control antibodies for 24 hours in the presence or absence of the patient's plasma. Apoptotic cells were then stained with Annexin-PI and analyzed by FACS.
Mononuclear cells from B-CLL patients were incubated with Y1-IgG, Rituximab or Campath® in the presence and absence of 25% of the patients' plasma. […] Neither Rituximab nor Y1-IgG induced cytotoxicity via complement fixation.

Data set [3] concerns the target PSGL-1 (P-Selectin Glycoprotein Ligand-1) (human) (UniProt Q14242). Description: cell-based or functional assay.
For another data set, the system named is primary AML cells. Description: Semisolid clonogenic assay, primary AML patient samples. Format: cell-based, human. Here is the method: 3.2 Cytotoxicity of Y1-IgGM-DNR Derivative (FIG. 12-14): The specific cytotoxic effect of Y1-drug conjugates was assessed in semisolid (METHOCULT™; StemCell Technologies Inc., Vancouver BC, Canada) clonogenic assays. Cells (CD34+ stem cells from cord blood or primary AML patient samples) were incubated with free or conjugated drugs at concentrations of up to 10^−6M for 1 hour at 37° C. The cells were washed, seeded in METHOCULT™ and grown for 10-12 days, after which colonies were counted. Bovine (b)-IgG-M-DNR was used as a non-specific conjugate control.

The test system of data set [4] is primary B-CLL cells. Description: Y1-IgG-mediated ADCC by PBMC effector cells against primary B-CLL cells. Format: cell-based. Here is the method:
For ADCC experiments, mononuclear effector and target cells were separated on FICOLL®. Target cells were then labeled with PKH26, which stably incorporates a fluorescent dye within the lipid regions of the cell membranes. Cells were then washed and incubated with effector cells at various Effector:Target (E:T) ratios, in the absence or presence of different concentrations of Y1-IgG or control antibodies for 24 hours. Dead cells were stained by TOPRO®(Molecular Probes, Inc., Eugene, Oreg.): and analyzed by FACS on gated target cells.
To determine if Y1-IgG mediates ADCC in primary B-CLL, B-CLL cells from different patients were co-incubated for 24 hours with PBMC effector cells at different effector/target cell ratios. […] Variation may be attributed to the effector cell samples obtained from different healthy donors, as well as to differences among the B-CLL samples.

A short description of another data set: Storage stability. The format is physicochemical. The settings on record: under argon at −20° C. The method, then:
After reaction with acetic acid, the resulting free base was isolated as its solid acetate salt followed by lyophilization. M-DNR-Ac is stable for at least 12 months under argon at −20° C.
The methanolic solution was evaporated to dryness under reduced pressure at 25° C., resulting in a red oily residue, which was dissolved in dry methanol. To this solution, dry ether was added and the precipitated red solid isolated by centrifugation. […] (6-Maleimidocaproyl)hydrazone of Morphlinyldaunorubicin acetate is stable for at least 4 months under argon at −20° C.

The mark [5] stands for this setting: substitution mutant peptides based on DLY^SDYYPE (FIG. 17B), concentration not given.

Chain of UniProt Q14242 (Q14242 42-412): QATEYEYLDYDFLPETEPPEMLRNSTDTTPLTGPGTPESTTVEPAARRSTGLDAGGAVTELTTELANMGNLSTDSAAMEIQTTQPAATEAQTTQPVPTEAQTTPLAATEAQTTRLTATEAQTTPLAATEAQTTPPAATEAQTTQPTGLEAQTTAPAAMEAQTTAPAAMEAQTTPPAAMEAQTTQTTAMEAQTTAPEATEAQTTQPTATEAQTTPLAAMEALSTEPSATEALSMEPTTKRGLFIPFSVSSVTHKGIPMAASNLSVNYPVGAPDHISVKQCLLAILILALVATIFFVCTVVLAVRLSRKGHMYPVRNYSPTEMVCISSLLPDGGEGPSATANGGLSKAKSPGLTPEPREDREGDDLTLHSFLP

“DAY^SDYYPE (DAY(SO3H)DYYPE) [Leu-275 replaced by Ala]”: the “inhibition of Y1-scFv binding to platelets” value (shortened to “inhibition of Y1-scFv binding”) in data set [1] (setting [5]) was “inhibited Y1-scFv binding to platelets”. “DLEDYYPE [sulfated Tyr-276 replaced with Glu]”: in data set [1] (setting [5]), the “inhibition of Y1-scFv binding” value is reported as “no substantial inhibition”. The same measure, in the same setting: then “DLY^SNYYPE (DLY(SO3H)NYYPE) [Asp-277 replaced by Asn]”, with “substantially incapable of inhibiting”.

With “DLY^SDY^SYPE (DLY(SO3H)DY(SO3H)YPE) [sulfated at the first and second tyrosines]”, in data set [1] (peptide 25 μM), the “inhibition of Y1-scFv binding” value is “effectively inhibited”. On to “Campath®: commercially available humanized antibody which binds CD52”, for which the “cytotoxicity via CDC” value with primary B-CLL cells [2] is reported as “mediated cytotoxicity of primary B-CLL cells via CDC”. For mouse anti-PSGL-1 antibody KPL1, the inhibition of ML2 cell rolling on rh-P-Selectin (1 µg/ml) at all shear forces in data set [3] is 100%. As for “DLY^SDYY^SPE (DLY(SO3H)DYY(SO3H)PE) [sulfated at the first and third tyrosines]”, in data set [1] (peptide 25 μM), the “inhibition of Y1-scFv binding” value is on record as “effectively inhibited”. Turning to “DLY^SDAYPE (DLY(SO3H)DAYPE) [substitution mutant peptide, amino acids 278 to 280]”, the “inhibition of Y1-scFv binding” value in data set [1] (setting [5]) was “inhibited Y1-scFv binding to platelets”. Turning to `COc1cccc2c1C(=O)c1c(O)c3c(c(O)c1C2=O)C[C@@](O)(C(C)=O)C[C@@H]3O[C@H]1C[C@H](N2CCOCC2)[C@H](O)[C@H](C)O1` [M-DNR, 3′-Deamino-3′-(4-morpholinyl)daunorubicin], in the data set on primary AML cells (1 μM), the “colony formation relative to control, AML-M4 cells” value is “did not give rise to colonies” and the “colony formation relative to control, AML-M5 cells” value is listed as “did not give rise to colonies”. Moreover, the “viability of primary AML cells relative to the control” value with primary AML cells (AML sample M7 megakaryocytic leukemia, 0.1 μM) is 80%. With “DLY^SDFYPE (DLY(SO3H)DFYPE) [substitution mutant peptide, amino acids 278 to 280]”, the “inhibition of Y1-scFv binding” value in data set [1] (setting [5]) is recorded as “inhibited Y1-scFv binding to platelets”. In the case of “DLY^SEYYPE (DLY(SO3H)EYYPE) [Asp-277 replaced by Glu]”, the “inhibition of Y1-scFv binding” value in data set [1] (setting [5]) is given as “substantially incapable of inhibiting”.

For the compound “Rituximab: commercially available humanized antibody which binds CD20”, in the data set on primary B-CLL cells [2], the “cytotoxicity via CDC” value is “Neither”. Besides, the “concentration at which saturation of receptor molecules on the target cells was achieved” value in the data set on primary B-CLL cells [4] was “not by the same concentration”.

For `CC(=O)O.COc1cccc2c1C(=O)c1c(O)c3c(c(O)c1C2=O)C[C@@](O)(C(C)=NNC(=O)CCCCCN1C(=O)C=CC1=O)C[C@@H]3O[C@H]1C[C@H](N2CCOCC2)[C@H](O)[C@H](C)O1` [(6-Maleimidocaproyl)hydrazone of Morphlinyldaunorubicin acetate], in the data set “Storage stability”, the “stable for” value is “at least 4 months”. “DLY^SDY^SY^SPE (DLY(SO3H)DY(SO3H)Y(SO3H)PE) [GPIb-based peptide comprising 3 sulfated tyrosines]”: the “inhibition of Y1-scFv binding” value in data set [1] (peptide 25 μM) is given as “effectively inhibited”.

For “DLYDY^SY^SPE (DLYDY(SO3H)Y(SO3H)PE) [sulfated at the second and third tyrosines]”, the “inhibition of Y1-scFv binding” value in data set [1] (peptide 200 μM) is reported as “no effect”. Take “DLYDYY^SPE (DLYDYYPE; not fully specified (residue 6)) [sulfated at the third tyrosine]”: in data set [1] (peptide 200 μM), the “inhibition of Y1-scFv binding” value is “no effect”. For “DLY^SDYYPE (DLY(SO3H)DYYPE) [sulfated at the first tyrosine]”, the “inhibition of Y1-scFv binding” value in data set [1] (peptide 25 μM) was “effectively inhibited”. Consider “DLY^SDYYAE (DLY(SO3H)DYYAE) [substitution mutant peptide, amino acids 278 to 280]”, for which the “inhibition of Y1-scFv binding” value in data set [1] (setting [5]) was “inhibited Y1-scFv binding to platelets”. For “DLY^SDYYPA (DLY(SO3H)DYYPA) [substitution mutant peptide, amino acids 278 to 280]”, the “inhibition of Y1-scFv binding” value in data set [1] (setting [5]) is “inhibited Y1-scFv binding to platelets”. With DLYDYYPE [non-sulfated control peptide], the “inhibition of Y1-scFv binding” value in data set [1] (peptide 200 μM) was “no effect”. As for `CC(=O)O.COc1cccc2c1C(=O)c1c(O)c3c(c(O)c1C2=O)C[C@@](O)(C(C)=O)C[C@@H]3O[C@H]1C[C@H](N2CCOCC2)[C@H](O)[C@H](C)O1` [M-DNR-Ac, 3′-Deamino-3′-(4-morpholinyl)daunorubicin acetate], in “Storage stability”, the “stable for” value is “at least 12 months”. Consider “DLY^SAYYPE (DLY(SO3H)AYYPE) [Asp-277 replaced by Ala]”, for which the “inhibition of Y1-scFv binding” value in data set [1] (setting [5]) was “substantially incapable of inhibiting”.
